Results published in PMC10762035, “Molecular basis of human trace amine-associated receptor 1 activation” (Nature Communications, 2024).
Numbering of substitutions follows the chain as printed. Where “and” joins values, the source holds several entries; their conditions need not be identical. Equal values may be shown once.

Columns and labels:
[1] = biological target: T1, hTA1 F195T (Homo sapiens, UniProt Q96RJ0, F195T); test: GloSensor cAMP accumulation assay, F195T mutant; type: cell-based;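 note: cells transiently co-expressing HA-FLAG-tagged hTA1 and the GloSensor cAMP biosensor, luminescence read 30 min after agonist addition at room temperature, concentration-response fitted by nonlinear regression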
T1 construct: expressed in transfected cells; host or cells: HEK293T
T1 sequence (Q96RJ0 1-339 F195T): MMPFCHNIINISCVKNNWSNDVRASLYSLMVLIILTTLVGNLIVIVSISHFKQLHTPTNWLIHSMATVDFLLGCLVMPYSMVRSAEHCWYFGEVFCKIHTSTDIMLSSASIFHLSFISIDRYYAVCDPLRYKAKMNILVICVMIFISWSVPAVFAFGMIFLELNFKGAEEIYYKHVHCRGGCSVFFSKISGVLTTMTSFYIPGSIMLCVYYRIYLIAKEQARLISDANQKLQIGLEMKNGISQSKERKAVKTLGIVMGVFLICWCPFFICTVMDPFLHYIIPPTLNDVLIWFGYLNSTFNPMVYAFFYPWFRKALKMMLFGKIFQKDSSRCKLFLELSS

[2] = biological target: T2, hTA1 T194A (Homo sapiens, UniProt Q96RJ0, T194A); test: GloSensor cAMP accumulation assay, T194A mutant; conditions: for cAMP accumulation response, individual replicate values of the concentration-response curve: hTA1 T194A, log[Agonist], Supplementary Figure 5 source data
T2 sequence (Q96RJ0 1-339 T194A): T1 sequence (Q96RJ0 1-339 F195T) with T194A, T195F

[3] = biological target: T3, hTA1 R83H (Homo sapiens, UniProt Q96RJ0, R83H); test: GloSensor cAMP accumulation assay, R83H mutant; type: cell-based;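 note: cells transiently co-expressing hTA1 and a cAMP GloSensor, luminescence read 30 min after agonist addition at room temperature, concentration–response fitted by non-linear regression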
T3 construct: expressed in transfected cells; host or cells: HEK293T
T3 sequence (Q96RJ0 1-339 R83H): T1 sequence (Q96RJ0 1-339 F195T) with R83H, T195F

[4] = biological target: T4, hTA1 C96S (Homo sapiens, UniProt Q96RJ0, C96S); test: GloSensor cAMP accumulation assay, C96S mutant; type: cell-based; conditions: log[Compound]
T4 construct: expressed in transfected cells; host or cells: HEK293T
T4 sequence (Q96RJ0 1-339 C96S): T1 sequence (Q96RJ0 1-339 F195T) with C96S, T195F

[5] = biological target: T5, hTA1 C88S (Homo sapiens, UniProt Q96RJ0, C88S); test: GloSensor cAMP accumulation assay, C88S mutant; type: cell-based; conditions: C88S
T5 construct: expressed in transfected cells; host or cells: HEK293T
T5 sequence (Q96RJ0 1-339 C88S): T1 sequence (Q96RJ0 1-339 F195T) with C88S, T195F

## NCCc1ccccc1 [β-PEA, β-phenethylamine]
[1]; F195T
  increase in potency vs wild type: ~ 3.5 fold
[1]; F195T mutant minus WT average, Figure 5B
  ΔpEC50 values (each mutant value - WT average), Mean: 0.6087 and 0.4606
[1]; F195T mutant, Figure 5B, each row one independent experiment (3 replicates)
  pEC50 values, Mean: 7.7022 and 7.554
[1]; F195T mutant, Figure 5B, β-PEA = 100, each row one independent experiment (3 replicates)
  Emax values, Mean: 100
[1]; F195T, n=2
  Span ± SEM (Emax normalized to β-PEA): 100
  pEC50 ± SEM: 7.63 ± 0.07
[1]; F195T, n=2, read-out: EC50
  EC50: 23.5 nM
[2]; T149A (so in the source), single experiments (3 replicates each)
  pEC50 values, Mean: 7.395 and 7.196 and 7.094
[2]; T149A (so in the source), single experiments (3 replicates each), β-PEA = 100
  Emax values, Mean: 100
[2]; T194A
  EC50: 63.6 nM
  Span ± SEM (Emax normalized to β-PEA): 100 ± 2.46
  pEC50 ± SEM: 7.23 ± 0.13
[2]; M = -7.522
  cAMP accumulation response, individual replicate values of the concentration-response curve: 32.1474 and 24.1931 and 33.6304 and 28.9237 and 30.7017 and 33.27 and 42.7604 and 43.2488 and 44.1811
[2]; M = -8
  cAMP accumulation response, individual replicate values of the concentration-response curve: 31.2036 and 13.6773 and 15.1603 and 14.8971 and 13.5142 and 22.7372 and 24.6907 and 22.9592
[2]; M = -8.522
  cAMP accumulation response, individual replicate values of the concentration-response curve: 3.836 and 0.5999 and 3.97 and 8.1802 and 2.846 (2×) and 8.885 and 8.264 and 10.2172
[2]; M = -9
  cAMP accumulation response, individual replicate values of the concentration-response curve: 2.487 and 2.892 and 1.813 and 0.4755 and 2.056 and 3.424 and 1.293 (2×)
[2]; M = -9.522
  cAMP accumulation response, individual replicate values of the concentration-response curve: 1.678 and 0.1954 and 0.8695 and 0.08035 (2×) and -0.5123 and 0.3166 and -0.7046 and 0.139
[2]; M = -10
  cAMP accumulation response, individual replicate values of the concentration-response curve: -0.6135 and -0.209 and 0.1954 and -0.5123 and -0.3148 and -0.08302 and -0.1718 and -0.749
[2]; M = -10.522
  cAMP accumulation response, individual replicate values of the concentration-response curve: -0.4787 and -1.692 and -1.557 and -1.303 (2×) and -1.5 and -0.7934 and -0.6602 and -0.6158
[2]; M = -11
  cAMP accumulation response, individual replicate values of the concentration-response curve: -1.4224 (2×) and -0.7483 and -0.9074 and -0.7099 and -0.4382 and -0.8378 and 0.05017
[2]; M = -11.522
  cAMP accumulation response, individual replicate values of the concentration-response curve: 0.4651 and -1.018 and -1.153 and -0.5123 and -0.7099 (2×) and -0.4382 and -1.015 and -0.6602
[2]; M = -12
  cAMP accumulation response, individual replicate values of the concentration-response curve: -0.07421 (2×) and -1.962 and -1.698 and -1.105 and -0.1274 and -0.6602 and -0.1718
[2]; M = -12.522
  cAMP accumulation response, individual replicate values of the concentration-response curve: 0.0606 and 1.004 and 0.8695 and -0.9074 and -0.7099 and -0.3148 and -0.1718 and -0.305 and 0.1834
[2]; minus WT average
  ΔEmax values (each mutant value - WT average): 0
[3]; R83H mutant minus WT average
  ΔEmax values (each mutant value - WT average): 0
  ΔpEC50 values (each mutant value - WT average): -1.391 and -1.424
[3]; R83H mutant, each line an independent experiment, 3 replicates
  pEC50 values, Mean: 5.702 and 5.67
[3]; R83H mutant, β-PEA = 100, each line an independent experiment, 3 replicates
  Emax values, Mean: 100
[3]; R83H, n=2
  Span ± SEM (Emax normalized to β-PEA): 100 ± 5.46
  pEC50 ± SEM: 5.69 ± 0.07
[3]; R83H, n=2, read-out: EC50
  EC50: 2060 nM
[4]; C96S, M = -5, single replicates (N=2)
  Normalized Luminescence Counts: 35.6736 and 42.2638 and 54.1262 and 8.922 and 12.7948 and 20.5413
[4]; C96S, M = -5.522, single replicates (N=2)
  Normalized Luminescence Counts: 25.7883 and 20.5161 and 22.4932 and 16.6681 and -2.698 and 8.922
[4]; C96S, M = -6, single replicates (N=2)
  Normalized Luminescence Counts: 12.6079 and 10.6308 and 7.995 and -2.698 (2×) and 5.048
[4]; C96S, M = -6.522, single replicates (N=2)
  Normalized Luminescence Counts: 0.7455 (2×) and 3.382 and 1.175 and -6.571 (2×)
[4]; C96S, M = -7, single replicates (N=2)
  Normalized Luminescence Counts: 0.7455 and -1.232 and -0.5726 and -2.698 (2×) and -6.571
[4]; C96S, M = -7.522, single replicates (N=2)
  Normalized Luminescence Counts: -0.5726 and -1.891 and 0.08646 and -4.6346 (2×) and -6.571
[4]; C96S, M = -8, single replicates (N=2)
  Normalized Luminescence Counts: 2.064 and 0.7455 and -0.5726 and 1.175 and 6.985 and 5.048
[4]; C96S, M = -8.522, single replicates (N=2)
  Normalized Luminescence Counts: 2.723 and -1.232 and -1.891 and 6.985 and 1.175 and 8.922
[4]; C96S, M = -9, single replicates (N=2)
  Normalized Luminescence Counts: -0.5726 and 0.08646 and -1.232 and 10.8582 and 1.175 and -0.7614
[4]; C96S, M = -9.522, single replicates (N=2)
  Normalized Luminescence Counts: 2.064 and -3.209 and -1.232 and -2.698 (2×) and 3.112
[4]; C96S, M = -10, single replicates (N=2)
  Normalized Luminescence Counts: 0.08646 and -0.5726 and -1.232 and -8.508 and -2.698 and -0.7614
[4]; C96S, M = -10.522, single replicates (N=2)
  Normalized Luminescence Counts: 4.7 and -1.232 and -1.891 and -10.4444 and -0.7614 and -2.698
[4]; C96S, M = -11, single replicates (N=2)
  Normalized Luminescence Counts: 2.723 and -0.5726 and 0.7455 and -10.4444 and 3.112 and 1.175
[4]; C96S, M = -11.522, single replicates (N=2)
  Normalized Luminescence Counts: 0.08646 and 2.064 and -2.55 and -10.4444
[4]; M = -11.522, single replicates, mutant block above C178S
  Normalized Luminescence Counts: -0.6791 and -0.9294 and -0.1556 and 1.551 and 0.7492 and 1.23
[4]; M = -12, single replicates, mutant block above C178S
  Normalized Luminescence Counts: -0.6108 and -0.9294 and -0.5425 and 1.07 and 0.8561 and 1.283
[4]; M = -12.522, single replicates, mutant block above C178S
  Normalized Luminescence Counts: -0.7929 and -0.6336 and -1.02 and 1.337 and 1.283 and 0.8561
[5]; Mean of fit per experiment
  Emax values: 100
  pEC50 values: 7.013 and 7.137
[5]; n=2
  Span ± SEM (Emax normalized to β-PEA): 100 ± 2.93
  pEC50 ± SEM: 7.08 ± 0.06
[5]; n=2, read-out: EC50
  EC50: 84.1 nM
